Measured values from publication PMC3743547 (Biochemistry, 2013).

How the values were obtained:
MppR [1] = target: T1, MppR (Streptomyces hygroscopicus, UniProt Q643B8); assay: steady-state kinetics of aldol condensation; assay type: biochemical; conditions: co-substrate pyruvate; no saturation below the solubility limit
MppR [2] = target: T1, MppR; assay: X-ray crystal structure, […] Å; assay type: binding; conditions: covalent; Schiff base with Lys156; 30 mM sodium pyruvate, 24 h soak

Km (MppR [1]) [mM] | Compound | X-ray crystal structure, 1.72 Å (crystal soak) (MppR [2])
> 50 | O=Cc1c[nH]cn1 [compound 6, 4-imidazolecarboxaldehyde] | 
 | CC(=O)C(=O)O [pyruvate] | resulting structure showed pyruvate covalently bound to Lys156 as the Schiff base
